# Measurements: paper PMC4589873, “A pain-inducing centipede toxin targets the heat activation machinery of nociceptor TRPV1” (Nature Communications, 2015)
# Experiments:
# [1] = system: mTRPV1 point mutants at D602, Y632, T634 and L461; assay: Whole-cell current of mTRPV1 point mutants; type: cell-based, mouse; conditions: glycine or alanine mutation, both at 10 μM, +80 mV
# From the text: (§1) TRPV1 and TRPV3 chimeras used in this study were generated by the overlapping extension method[54] and confirmed by DNA sequencing, as described previously. Briefly, to generate V1/3S, the primer pairs (5′-[…]-3′and 5′-[…]-3′) were used. To generate other TRPV1/TRPV3 chimeras, the enzyme cutting sites by MluI were made by the primer pair (5′-[…]-3′ and 5′-[…]-3′) for TRPV1 and the primer pair (5′-[…]-3′ and 5′-[…]-3′) for TRPV3. The enzyme cutting sites by PvuI were made by the primer pair (5′-[…]-3′ and 5′-[…]-3′) for TRPV1 and the primer pair (5′-[…]-3′ and 5′-[…]-3′) for TRPV3. The enzyme cutting sites by BsiWI were made by the primer pair (5′-[…]-3′ and 5′-[…]-3′) for TRPV1 and the primer pair (5′-[…]-3′ and 5′-[…]-3′) for TRPV3. V1/3M were generated by enzyme cut and paste between MluI and PvuI sites, while V1/3L were generated by enzyme cut and paste between MluI and BsiWI sites. V1_S1S2_1, V1_S1S2_3 and V1_S1S2_3 were generated as previously reported. […]
# As described in details in a previous report, macroscopic currents (in whole-cell, inside-out or outside-out configuration) as well as single-channel currents were recorded using a HEKA EPC10 amplifier with the PatchMaster software (HEKA). […] Statistical difference was determined using the Student’s t-test, and indicated by ** when reaching the significance level P<0.001.
# Trpv1−/− knockout mice = assay: Paw-licking assay in TRPV1 knockout mice; type: in vivo, mouse; conditions: intraplantar, 1 μmol per paw
# Protocol: In vivo effects of RhTx on WT mice or Trpv1^−/− mice were examined according to protocols described previously. For the paw-licking assay, pain was induced in mice by intraplantar injection of 0.1% formalin, capsaicin (1 μmol per paw) or RhTx (1 μmol per paw). Each of the testing materials was dissolved in 100 μl saline. Control mice received the same volume of saline. Injected mice were placed individually into open polyvinyl cages (20 × 40 × 15 cm). Time spent licking the injected paw was recorded by a digital video camera during the following 40 min. For recording colonic temperature from WT or Trpv1^−/− mice, mice equipped with a copper-constantan thermocouple were individually placed in open polyvinyl cages. A data logger was connected to the thermocouple. Mice were injected intraperitoneally with 100 μl saline containing capsaicin or RhTx. The dose of capsaicin or RhTx was 10 μmol kg^−1 for these experiments. Mice in the control group received the same volume of saline.
# TRPV1 = assay: Cooling of RhTx- or capsaicin-induced channel activation; type: cell-based; conditions: RhTx at 1 μM
# Protocol: (§2) As described in details in a previous report, macroscopic currents (in whole-cell, inside-out or outside-out configuration) as well as single-channel currents were recorded using a HEKA EPC10 amplifier with the PatchMaster software (HEKA). Both pipette solution and bath solution contained 130 mM NaCl, 3 mM HEPES and 0.2 mM EDTA (pH 7.2). All recordings were performed at room temperature unless otherwise stated. A holding potential of 0 mV was used from which a testing pulse to +80 mV was applied. Statistical difference was determined using the Student’s t-test, and indicated by ** when reaching the significance level P<0.001.
# mTRPV1 = target: T1, mTRPV1 (Mus musculus, UniProt Q704Y3); assay: Whole-cell patch-clamp of mTRPV1 expressed in HEK293 cells; type: cell-based; conditions: SEM
# T1 construct: expressed in transfected cells; host or cells: HEK-293T
# T1 sequence (Q704Y3 whole entry): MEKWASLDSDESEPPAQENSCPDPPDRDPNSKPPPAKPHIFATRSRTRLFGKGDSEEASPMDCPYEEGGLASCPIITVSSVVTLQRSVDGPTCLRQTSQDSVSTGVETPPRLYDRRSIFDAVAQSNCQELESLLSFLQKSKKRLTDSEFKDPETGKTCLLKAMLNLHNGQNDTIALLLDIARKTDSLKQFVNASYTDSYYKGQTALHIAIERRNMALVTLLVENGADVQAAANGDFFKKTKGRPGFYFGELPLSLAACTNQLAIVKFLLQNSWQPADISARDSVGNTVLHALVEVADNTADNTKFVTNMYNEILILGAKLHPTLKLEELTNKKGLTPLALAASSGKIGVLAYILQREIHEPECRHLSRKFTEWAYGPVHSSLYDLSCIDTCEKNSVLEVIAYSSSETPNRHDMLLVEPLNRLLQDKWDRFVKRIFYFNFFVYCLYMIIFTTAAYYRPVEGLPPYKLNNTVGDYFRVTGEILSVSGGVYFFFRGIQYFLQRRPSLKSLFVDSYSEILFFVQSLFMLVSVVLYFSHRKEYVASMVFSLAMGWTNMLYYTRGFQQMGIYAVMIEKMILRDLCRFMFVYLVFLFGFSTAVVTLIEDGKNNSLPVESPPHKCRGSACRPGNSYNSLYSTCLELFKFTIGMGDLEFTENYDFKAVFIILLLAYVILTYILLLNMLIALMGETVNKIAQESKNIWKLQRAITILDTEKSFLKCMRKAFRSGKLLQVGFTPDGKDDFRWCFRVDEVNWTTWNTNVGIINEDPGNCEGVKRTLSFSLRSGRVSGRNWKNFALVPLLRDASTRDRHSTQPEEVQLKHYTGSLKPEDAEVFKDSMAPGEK
# From the text: TRPV1 and TRPV3 chimeras used in this study were generated by the overlapping extension method[54] and confirmed by DNA sequencing, as described previously. Briefly, to generate V1/3S, the primer pairs (5′-[…]-3′and 5′-[…]-3′) were used. To generate other TRPV1/TRPV3 chimeras, the enzyme cutting sites by MluI were made by the primer pair (5′-[…]-3′ and 5′-[…]-3′) for TRPV1 and the primer pair (5′-[…]-3′ and 5′-[…]-3′) for TRPV3. The enzyme cutting sites by PvuI were made by the primer pair (5′-[…]-3′ and 5′-[…]-3′) for TRPV1 and the primer pair (5′-[…]-3′ and 5′-[…]-3′) for TRPV3. The enzyme cutting sites by BsiWI were made by the primer pair (5′-[…]-3′ and 5′-[…]-3′) for TRPV1 and the primer pair (5′-[…]-3′ and 5′-[…]-3′) for TRPV3. V1/3M were generated by enzyme cut and paste between MluI and PvuI sites, while V1/3L were generated by enzyme cut and paste between MluI and BsiWI sites. V1_S1S2_1, V1_S1S2_3 and V1_S1S2_3 were generated as previously reported. All mTRPV1 point mutations were constructed using the QuickChange II XL site-directed mutagenesis kit following the manufacturer’s instruction. These point mutations were sequenced to confirm that appropriate constructs were made. HEK-293T cells were cultured and transiently transfected using Lipofectamine 2,000 (Invitrogen) as previously described.
# as §2
# [2] = system: mTRPV1 point mutants at D602, Y632, T634 and L461; assay: Calcium imaging of mTRPV1 point mutants; type: cell-based, mouse; conditions: glycine or alanine mutation; 10 μM RhTx, 10 μM capsaicin
# From the text: as §1, with “TRPV3.” for “TRPV3. V1/3M were generated by enzyme cut and paste between MluI and PvuI sites, while V1/3L were generated by enzyme cut and paste between MluI and BsiWI sites. V1_S1S2_1, V1_S1S2_3 and V1_S1S2_3 were generated as previously reported.”
# Mouse DRG neurons were acutely dissociated and maintained in a short-term primary culture according to procedures as previous descripted. […] Fluorescence images of DRG neurons and HEK-293T cells were acquired with an Olympus IX81 microscope with Hamamatsu C4742 charge-coupled device camera controlled by the MetaFluor Software (Molecular Devices). Fluo-4 was excited by a mercury vapour light source with a 500/20-nm excitation filter, while fluorescence emission was detected with a 535/30-nm emission filter. Fluorescence images were required with automated routines written in MetaMorph software (Molecular Devices) and analysed with Igor Pro (Wavemetrics).
smiles,measurement,setting,value
"COc1cc(CNC(=O)CCCC/C=C/C(C)C)ccc1O [capsaicin, reference compound]",agonist-induced current in point mutants versus WT channel,[1],sparing
same,pain behaviour (paw licking) in knockout mice,Trpv1−/− knockout mice,ineffective
same,effect of lowering the experimental temperature on agonist-induced channel activation,TRPV1,could not prevent
same,EC50,mTRPV1,214 ± 20.6 nM
same,Hill slope,mTRPV1,1.36±0.18
same,agonist-induced intracellular calcium increase in point mutants versus WT channel,[2],sparing
